Results reported in patent US11214803B2, “Modulators of YAP1 expression” (Ionis Pharmaceuticals, Inc., priority 2019, dated 2022).
Strand notation (5' to 3'): a small letter for the sugar, then the base; units joined by * are phosphorothioate-linked, units joined directly phosphodiester-linked; [ ] holds rarer units or linkages, { } end groups; capitals alone tell only the bases. k = constrained ethyl (cEt); [5mC] = 5-methylcytosine; d = 2'-deoxy (DNA)

Experiments:
Yap1 mRNA [1] = test: Antisense inhibition of human Yap1 in A-431 cells by cEt gapmers, single dose (Example 2, RTS4814); assay type: cell-based
Method: Modified oligonucleotides were designed to target a Yap1 nucleic acid and were tested for their effect on Yap1 mRNA level in vitro. The modified oligonucleotides were tested in a series of experiments that had similar culture conditions. Cultured A-431 cells at a density of 5,000 cells per well were treated using free uptake with 2,000 nM of modified oligonucleotide. After a treatment period of approximately 48 hours, RNA was isolated from the cells and Yap1 mRNA levels were measured by quantitative real-time RTPCR. Human primer probe set RTS4814 was used to measure mRNA levels. Yap1 mRNA levels were normalized to total RNA content, as measured by RIBOGREEN®. Results are presented in the tables below as percent control of the amount of Yap1 mRNA relative to untreated control cells (% UTC). The modified oligonucleotides with percent control values marked with an asterisk (*) target the amplicon region of the primer probe set. Additional assays may be used to measure the potency and efficacy of the modified oligonucleotides targeting the amplicon region.
The newly designed modified oligonucleotides in the Tables below were designed as 3-10-3 cEt gapmers. The gapmers are 16 nucleosides in length, wherein the central gap segment comprises of ten 2′-deoxynucleosides and is flanked by wing segments on the 5′ direction and the 3′ direction comprising three nucleosides each. Each nucleoside in the 5′ wing segment and each nucleoside in the 3′ wing segment has a cEt sugar modification. The internucleoside linkages throughout each gapmer are phosphorothioate (P═S) linkages. All cytosine residues throughout each gapmer are 5-methylcytosines.
“Start site” indicates the 5′-most nucleoside to which the gapmer is targeted in the human gene sequence. “Stop site” indicates the 3′-most nucleoside to which the gapmer is targeted human gene sequence. […] Activity ofthe modified oligonucleotide may be defined in a different experiment.

Yap1 mRNA [2] = test: Dose-dependent inhibition of human Yap1 in A-431 cells (Example 8, 10,000 cells per well, RTS4814); assay type: cell-based; details: free uptake, approximately 48 hours, RTS4814; for Yap1 mRNA, % UTC: A-431 cells, 10,000 cells per well; for IC50: A-431 cells, linear regression on log/linear plot
How it was run: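 Yap1 mRNA, normalized to RIBOGREEN total RNA and expressed as % untreated control, was read with RTS4814 about 48 h after free-uptake oligonucleotide treatment of A-431 cells at 10,000 cells/well. IC50 derived by linear regression of log/linear data.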

[3] = Table 19, A-431 cells, 5,000 cells per well, free uptake, 2,000 nM modified oligonucleotide, approx. 48 hours, RTS4814, normalized to RIBOGREEN, Yap1 mRNA as percent of untreated control
[4] = Table 33, Yap1 mRNA, percent of untreated control, 3-10-3 cEt gapmers targeting SEQ ID NO.: 1, and 2

Substance | Yap1 mRNA, % UTC (Yap1 mRNA [2]; 31.3 nM) [% UTC] | Yap1 mRNA, % UTC (Yap1 mRNA [2]; 125.0 nM) [% UTC] | Yap1 mRNA, % UTC (Yap1 mRNA [2]; 500.0 nM) [% UTC] | Yap1 mRNA, % UTC (Yap1 mRNA [2]; 2000.00 nM) [% UTC] | IC50 (Yap1 mRNA [2]) [nM] | further results
1076389 (kA*kT*k[5mC]*dG*dA*dA*dA*dT*dA*dT*dT*d[5mC]*dG*kA*kG*kA; antisense) [Compound 1076389] | – | – | – | – | – | YAP1 (% UTC) (Yap1 mRNA [1]; [3]): 76 % UTC
1074483 (k[5mC]*kA*k[5mC]*dT*dA*dA*dT*dA*dT*dG*dG*dT*d[5mC]*kA*kT*kT; antisense) [compound 1074483] | – | – | – | – | – | YAP1 (% UTC) (Yap1 mRNA [1]; [4]): 15 % UTC
1075595 (kT*kA*kT*dA*dA*dT*dA*d[5mC]*dA*dT*d[5mC]*dT*d[5mC]*k[5mC]*k[5mC]*k[5mC]; antisense) [Compound 1075595] | – | – | – | – | – | YAP1 (% UTC) (Yap1 mRNA [1]; Table 25, Yap1 mRNA as percent of untreated control, 3-10-3 cEt gapmers targeting SEQ ID NO.: 1, and 2): 50 % UTC
1074928 (antisense kA*kT*kA*d[5mC]*dA*dA*d[5mC]*dA*dG*dG*d[5mC]*d[5mC]*dT*kG*k[5mC]*kA) [compound 1074928] | – | – | – | – | – | YAP1 (% UTC) (Yap1 mRNA [1]; Yap1 mRNA as percent of untreated control, A-431 cells, 3-10-3 cEt gapmers targeting SEQ ID NO.: 1, and 2, Table 30): 83 % UTC
1076517 (antisense k[5mC]*kA*kT*dA*dA*dT*dA*dA*dG*dA*d[5mC]*dT*dA*kA*kA*k[5mC]) [Compound 1076517] | – | – | – | – | – | YAP1 (% UTC) (Yap1 mRNA [1]; [3]): 102 % UTC
1074664 (antisense kG*k[5mC]*kA*dT*dT*d[5mC]*dT*dA*dG*dG*dT*dA*dG*kA*kA*kT) [Compound 1074664] | – | – | – | – | – | YAP1 (% UTC) (Yap1 mRNA [1]; Table 22, Yap1 mRNA as percent of untreated control, 3-10-3 cEt gapmers, single dose): 49 % UTC
1075091 (kA*kA*kA*d[5mC]*dA*dA*d[5mC]*dG*dA*dA*dT*dG*dA*kT*kT*kG; antisense) [compound 1075091] | – | – | – | – | – | YAP1 (% UTC) (Yap1 mRNA [1]; [4]): 65 % UTC
1076019 (k[5mC]*kA*k[5mC]*dT*dA*dA*dT*dA*dG*dG*dA*dT*dG*kG*kA*kT; antisense) [compound 1076019] | – | – | – | – | – | YAP1 (% UTC) (Yap1 mRNA [1]; [4]): 12 % UTC
1074345 (antisense kT*k[5mC]*kT*dG*dA*dG*d[5mC]*dT*dA*dT*dT*dG*dG*kT*k[5mC]*kG) [Compound 1074345] | – | – | – | – | – | YAP1 (% UTC) (Yap1 mRNA [1]; Table 23, Yap1 mRNA as percent of untreated control, 3-10-3 cEt gapmers, single dose): 8 % UTC
1075812 (k[5mC]*kA*kT*dT*dA*dA*dG*dA*dT*dT*dT*dT*dA*kA*k[5mC]*k[5mC]; antisense) [Compound 1075812] | – | – | – | – | – | YAP1 (% UTC) (Yap1 mRNA [1]; Table 18, A-431 cells, 5,000 cells per well, free uptake, 2,000 nM modified oligonucleotide, approx. 48 hours, RTS4814, normalized to RIBOGREEN, Yap1 mRNA as percent of untreated control): 103 % UTC
1076000 (k[5mC]*k[5mC]*kT*dA*dA*dT*dA*dT*dG*dA*d[5mC]*dT*d[5mC]*k[5mC]*kT*kT; antisense) [compound 1076000] | 71 | 31 | 10 | 5 | 100 | –
1074250 (antisense k[5mC]*kT*kG*dA*dT*d[5mC]*dG*dA*dT*dG*dT*dG*dA*kT*kT*kT) [compound 1074250] | 67 | 35 | 15 | 9 | 100 | –
1075233 (kG*kT*kA*dA*dT*dT*dT*dA*dT*d[5mC]*dA*dG*d[5mC]*k[5mC]*kA*kT; antisense) [compound 1075233] | 45 | 12 | 5 | 3 | < 20 | –
1074565 (DNA kA*k[5mC]*kT*dG*dA*dA*dT*dT*d[5mC]*d[5mC]*dA*dA*dT*k[5mC]*kG*kA; antisense) [compound 1074565] | 47 | 20 | 9 | 6 | < 20 | –
1074597 (DNA kA*kG*kT*dA*dT*dT*d[5mC]*dT*dA*dT*d[5mC]*d[5mC]*dA*kG*kG*kG; antisense) [compound 1074597] | 35 | 15 | 8 | 7 | < 20 | –
1074817 (k[5mC]*kT*kG*dA*dA*dT*dA*dT*dT*dG*d[5mC]*d[5mC]*dA*k[5mC]*k[5mC]*k[5mC]; antisense) [compound 1074817] | 50 | 22 | 13 | 11 | < 20 | –
1076288 (k[5mC]*kT*kT*dA*dT*dT*dT*dA*dG*d[5mC]*dA*dT*dA*kG*kT*kG; antisense) [compound 1076288] | 31 | 7 | 3 | 4 | < 20 | –
